Measured values taken from US5202315A, “Cephalosporin compounds” (Lucky, Ltd., priority 1989, dated 1993).
Converted amounts (≈) assume the structure as drawn. Like-named read-outs stand apart in the source and are kept apart here.

Experiments:
[1] = system: Bacillus megaterium ATCC 9885; experiment: Antibacterial activity, MIC; assay type: cell-based; conditions: Priestia megaterium, ATCC9885; ATCC 9885; agar two-fold dilution, 37° C., 20 hours; read-out: MIC
Procedure: (§1) Also, the in vitro antibacterial activity was determined by the by a two-fold dilution method as described below:
(§2) That is, the two-fold serial dilutions of the compound were made dispersed in Muller-Hinton agar medium. 2 μl of standard test strain which had the 10^7 CFU per ml was inoculated on the medium, and was incubated at 37° C. for 20 hours.

[2] = system: Staphylococcus aureus ATCC 10537; experiment: Antibacterial activity, MIC; assay type: cell-based; conditions: ATCC10537, ATCC 10537, agar two-fold dilution, 37° C., 20 hours, read-out: MIC
Procedure: as §1, §2

[3] = system: Acinetobacter calcoaceticus ATCC 15473; experiment: Antibacterial activity, MIC; assay type: cell-based; conditions: ATCC15473, ATCC 15473, agar two-fold dilution, 37° C., 20 hours, read-out: MIC
Procedure: as §1, §2

[4] = system: Pseudomonas aeruginosa ATCC 25619; experiment: Antibacterial activity, MIC; assay type: cell-based; conditions: ATCC25619, ATCC 25619, agar two-fold dilution, 37° C., 20 hours, read-out: MIC
Procedure: as §1, §2

[5] = system: Citrobacter freundii ATCC 8090; experiment: Antibacterial activity, MIC; assay type: cell-based; conditions: ATCC8090, ATCC 8090, agar two-fold dilution, 37° C., 20 hours, read-out: MIC
Procedure: as §1, §2

[6] = system: Enterobacter aerogenes ATCC 29751; experiment: Antibacterial activity, MIC; assay type: cell-based; conditions: Klebsiella aerogenes, ATCC29751; ATCC 29751; agar two-fold dilution, 37° C., 20 hours; read-out: MIC
Procedure: as §1, §2

[7] = system: Pseudomonas aeruginosa ATCC 10145; experiment: Antibacterial activity, MIC; assay type: cell-based; conditions: ATCC10145, ATCC 10145, agar two-fold dilution, 37° C., 20 hours, read-out: MIC
Procedure: as §1, §2

[8] = system: Enterobacter cloacae ATCC 27508; experiment: Antibacterial activity, MIC; assay type: cell-based; conditions: ATCC27508, ATCC 27508, agar two-fold dilution, 37° C., 20 hours, read-out: MIC
Procedure: as §1, §2

[9] = system: Escherichia coli ATCC 10536; experiment: Antibacterial activity, MIC; assay type: cell-based; conditions: ATCC10536, agar two-fold dilution, 37° C., 20 hours
Procedure: as §1, §2

[10] = system: Micrococcus luteus ATCC 9341; experiment: Antibacterial activity, MIC; assay type: cell-based; conditions: ATCC9341, ATCC 9341, agar two-fold dilution, 37° C., 20 hours, read-out: MIC
Procedure: as §1, §2

[11] = system: Shigella flexneri ATCC 11836; experiment: Antibacterial activity, MIC; assay type: cell-based; conditions: ATCC11836, agar two-fold dilution, 37° C., 20 hours
Procedure: as §1, §2

[12] = system: Streptococcus faecalis ATCC 29212; experiment: Antibacterial activity, MIC; assay type: cell-based; conditions: Enterococcus faecalis, ATCC29212; ATCC 29212; agar two-fold dilution, 37° C., 20 hours; read-out: MIC
Procedure: as §1, §2

[13] = system: Proteus vulgaris ATCC 6059; experiment: Antibacterial activity, MIC; assay type: cell-based; conditions: ATCC6059, ATCC 6059, agar two-fold dilution, 37° C., 20 hours, read-out: MIC
Procedure: as §1, §2

[14] = system: Klebsiella pneumoniae ATCC 10031; experiment: Antibacterial activity, MIC; assay type: cell-based; conditions: ATCC10031, ATCC 10031, agar two-fold dilution, 37° C., 20 hours, read-out: MIC
Procedure: as §1, §2

[15] = system: Staphylococcus aureus ATCC 6538p; experiment: Antibacterial activity, MIC; assay type: cell-based; conditions: ATCC6538P, ATCC 6538p, agar two-fold dilution, 37° C., 20 hours, read-out: MIC
Procedure: as §1, §2

[16] = system: Proteus mirabilis ATCC 25933; experiment: Antibacterial activity, MIC; assay type: cell-based; conditions: ATCC25933, ATCC 25933, agar two-fold dilution, 37° C., 20 hours, read-out: MIC
Procedure: as §1, §2

[17] = system: Morganella morganii ATCC 8076h; experiment: Antibacterial activity, MIC; assay type: cell-based; conditions: ATCC8076H, agar two-fold dilution, 37° C., 20 hours
Procedure: as §1, §2

[18] = system: Serratia marcescens ATCC 27117; experiment: Antibacterial activity, MIC; assay type: cell-based; conditions: ATCC27117, ATCC 27117, agar two-fold dilution, 37° C., 20 hours, read-out: MIC
Procedure: as §1, §2

[19] = system: Staphylococcus epidermidis ATCC 12228; experiment: Antibacterial activity, MIC; assay type: cell-based; conditions: ATCC12228, ATCC 12228, agar two-fold dilution, 37° C., 20 hours, read-out: MIC
Procedure: as §1, §2

[20] = system: Escherichia coli ATCC 25922; experiment: Antibacterial activity, MIC; assay type: cell-based; conditions: ATCC25922, agar two-fold dilution, 37° C., 20 hours
Procedure: as §1, §2

[21] = system: Bacillus cereus ATCC 11778; experiment: Antibacterial activity, MIC; assay type: cell-based; conditions: ATCC11778, ATCC 11778, agar two-fold dilution, 37° C., 20 hours, read-out: MIC
Procedure: as §1, §2

[22] = system: Providencia rettgeri ATCC 9250; experiment: Antibacterial activity, MIC; assay type: cell-based; conditions: ATCC9250, agar two-fold dilution, 37° C., 20 hours
Procedure: as §1, §2

[23] = system: Salmonella typhimurium ATCC 14028; experiment: Antibacterial activity, MIC; assay type: cell-based; conditions: Salmonella enterica; ATCC 14028; agar two-fold dilution, 37° C., 20 hours; read-out: MIC
Procedure: as §1, §2

[24] = system: Pseudomonas aeruginosa ATCC 27853; experiment: Antibacterial activity, MIC; assay type: cell-based; conditions: ATCC27853, ATCC 27853, agar two-fold dilution, 37° C., 20 hours, read-out: MIC
Procedure: as §1, §2

[25] = system: Shigella sonnei ATCC 11060; experiment: Antibacterial activity, MIC; assay type: cell-based; conditions: ATCC11060, ATCC 11060, agar two-fold dilution, 37° C., 20 hours, read-out: MIC
Procedure: as §1, §2

[26] = In-vivo absorbency (plasma concentrations & pharmacokinetic parameters); set-up: species or system SD rat (male); conditions: plasma, SD male rat, iv 20 mg/kg, read-out: Plasma Conc.
[27] = as above; set-up: species or system SD rat (male); conditions: plasma, SD male rat, iv 20 mg/kg; for half-life: rat, iv, 20 mg/kg
Excerpt: The blood samples from the femoral vein of the rats were taken every hour after administration, and analyzed by bio-assay(agar well method).
Tested animal: SD male Rat (220~340 g)

| Structure (SMILES) | MIC [2] | MIC [3] | MIC [4] | MIC [5] | MIC [6] | MIC [7] | MIC [8] | MIC [9] | MIC [10] | MIC [11] | MIC [12] | MIC [13] | MIC [14] | MIC [15] | MIC [16] | MIC [17] | MIC [18] | MIC [19] | MIC [20] | MIC [21] | also measured |
| --- | --- | --- | --- | --- | --- | --- | --- | --- | --- | --- | --- | --- | --- | --- | --- | --- | --- | --- | --- | --- | --- |
| CC(C)(O/N=C(\C(=O)NC1C(=O)N2C(C(=O)[O-])=C(CSc3nc(N)cc(N)[n+]3N)CSC12)c1nsc(N)n1)C(=O)O (centres unmarked) [Compound I-13] | 8 µg/mL (≈ 12.8 µM) | 4 µg/mL (≈ 6.39 µM) | 2 µg/mL (≈ 3.2 µM) | 0.13 µg/mL (≈ 0.208 µM) | 1 µg/mL (≈ 1.6 µM) | 2 µg/mL (≈ 3.2 µM) | 0.031 µg/mL (≈ 0.0495 µM) | 0.13 µg/mL (≈ 0.208 µM) | 1 µg/mL (≈ 1.6 µM) | 0.063 µg/mL (≈ 0.101 µM) | > 128 µg/mL | 0.13 µg/mL (≈ 0.208 µM) | 0.063 µg/mL (≈ 0.101 µM) | 16 µg/mL (≈ 25.6 µM) | 0.13 µg/mL (≈ 0.208 µM) | 0.016 µg/mL (≈ 0.0256 µM) | 0.25 µg/mL (≈ 0.4 µM) | 4 µg/mL (≈ 6.39 µM) | 0.13 µg/mL (≈ 0.208 µM) | > 128 µg/mL | MIC [1]: 1 µg/mL (≈ 1.6 µM); MIC [22]: ≤ 0.008 µg/mL; MIC [23]: 0.5 µg/mL (≈ 0.799 µM); MIC [24]: 1 µg/mL (≈ 1.6 µM) |
| Cc1c(N)nc(SCC2=C(C(=O)[O-])N3C(=O)C(NC(=O)/C(=N\OC(C)(C)C(=O)O)c4csc(N)n4)C3SC2)[n+](N)c1N (centres unmarked) [Compound I-34] | 2 µg/mL (≈ 3.13 µM) | 4 µg/mL (≈ 6.26 µM) | 2 µg/mL (≈ 3.13 µM) | 0.063 µg/mL (≈ 0.0986 µM) | 1 µg/mL (≈ 1.57 µM) | 2 µg/mL (≈ 3.13 µM) | 0.016 µg/mL (≈ 0.0251 µM) | 0.063 µg/mL (≈ 0.0986 µM) | 0.5 µg/mL (≈ 0.783 µM) | 0.031 µg/mL (≈ 0.0485 µM) | > 128 µg/mL | 0.063 µg/mL (≈ 0.0986 µM) | 0.063 µg/mL (≈ 0.0986 µM) | 4 µg/mL (≈ 6.26 µM) | 0.031 µg/mL (≈ 0.0485 µM) | ≤ 0.008 µg/mL | 0.13 µg/mL (≈ 0.204 µM) | 2 µg/mL (≈ 3.13 µM) | 0.13 µg/mL (≈ 0.204 µM) | 128 µg/mL (≈ 200 µM) | MIC [22]: ≤ 0.008 µg/mL; MIC [23]: 0.13 µg/mL (≈ 0.204 µM); MIC [25]: 0.063 µg/mL (≈ 0.0986 µM); MIC [24]: 2 µg/mL (≈ 3.13 µM); concentration at 0.5 min ([26]; 0.5 min): 181000 ng/mL; concentration at 2.5 min ([26]; 2.5 min): 89000 ng/mL; concentration at 5 min ([26]; 5 min): 68000 ng/mL; concentration at 10 min ([26]; 10 min): 47000 ng/mL; concentration at 20 min ([26]; 20 min): 31000 ng/mL; concentration at 40 min ([26]; 40 min): 15000 ng/mL; concentration at 1 h ([27]; 60 min, read-out: Plasma Conc.): 7800 ng/mL; concentration at 2 h ([27]; 120 min, read-out: Plasma Conc.): 1200 ng/mL; AUC ([27]; two compartment model): 37200 ng·h/mL; half-life ([27]; two compartment model, read-out: T1/2 (α)): 1 min; half-life ([27]; two compartment model, read-out: T1/2 (β)): 21 min |
